The numbers were not newly measured in patent US20230399335A1, “PROCESS FOR THE PREPARATION OF ASENAPINE IN THE FORM OF ITS FREE BASE” (LTS LOHMANN Therapie-Systeme AG, priority 2020, published 2023), which cites them from elsewhere.

The conditions of this data set: when taken orally.

Structures are written as SMILES.

On to `CN1C[C@H]2c3ccccc3Oc3ccc(Cl)cc3[C@@H]2C1` (relative stereo) [asenapine, (3aRS,12bRS)-rel-5-chloro-2,3,3a,12b-tetrahydro-2-methyl-1H-dibenz[2,3:6,7]oxepin [4,5-c]pyrrole], for which the bioavailability is reported as under 2%.
